Test results published in patent USRE38723E1, “Haloalkyl derivatives of reporter molecules used to analyze metabolic activity in cells” (Molecular Probes, Inc., priority 1991, dated 2005).

Key:
[1] = tested on: lacZ positive CRE BAG 2 cells; experiment: Cellular retention after loading by hypoosmotic shock (Example 12); type: cell-based
Description: 5-Chloromethylfluorescein di-β-D-galactoside (CMFDG) (Example 1) is dissolved in DMSO to get 20 mM stock solution. A 40 mM stock solution offluorescein di-β-D-galaetoside (FDG) (Molecular Probes) is also made in DMSO as a control. The stock solutions are kept sealed in brown reagent bottles and stored at −20° C.
• (A) FCS-PBS Solution: Phosphate buffered saline (GIBCO), 4% fetal calf serum, 10 mM HEPES, pH 7.2 • (B) Staining Solution: CMFDG: 200 μL of stock solution is diluted with distilled water to 4 mL to get a 1 mM staining solution. FDG: 400 μL of stock solution is diluted to 4 mL with distilled water to get a 4 mM staining solution. 4. Staining and Examination of Cells:
Cells grown on coverslips are transferred to a Petri dish containing 3 mL of FCS-PBS solution and then incubated at 37° C. for 10 minutes. 3 mL of prewarmed (37° C.) 1 mM CMFDG staining solution is added to give a final dye concentration of 0.5 mM The solutions are mixed rapidly. The cells are incubated at 37° C. for exactly one minute. To stop the loading, the cells are transferred to a 1.8 mL of ice-cold FCS-PBS solution. FDG is loaded into cells by using the same procedure except that the final dye concentrations is 2 mM. Cells are then incubated under normal culture conditions to examine the dye retention. Cells are examined without washing at the desired time for their fluorescence under a Zeiss microscope equipped with a FITC filter set (EX 485 nm/EM 530 nm).

[2] = tested on: NIH/3T3 cells and CRE BAG 2 cells; experiment: Cytotoxicity of CMFDG staining medium (Example 12)
Description: (§1) The same cell lines as used in Example 11 are used for these experiments.

[3] = tested on: lacZ-positive yeast strains EG123 and HR125-5d; experiment: Measurement of lacZ marker gene expression in transformed yeast (Example 13); type: cell-based, Saccharomyces cerevisiae
Description: Because the CMFDG substrate generates a product that is so well retained by cells (Examples 11 and 12), it can be used for quantitative measurements of lacZ expression. • 1. A series of lacZ gene containing plasmids, each with a modified yeast promoter are used. When transferred into the appropriate strains of Saccharomyces cerevisiae, each plasmid confers a different level of lacZ gene expression. Yeast strains EG123 and HR125-5d, transformed with these plasmids, are grown in special minimal medium for plasmid maintenance and, after reaching the appropriate level of growth, are assayed for lacZ gene expression as measured by β-galactosidase activity. • 2. The β-galactosidase activity of one aliquot of these transformed yeast cells is measured using o-nitrophenyl-β-D-galactopyranoside (ONPG). • 3. Another aliquot of yeast cells is loaded with the fluorogenic substrate CMFDG as indicated in Example 12. Following washing to remove any dye that has leaked from the cells, the fluorescence intensity of the remaining cells as measured in a CytoFluor 2300 fluorescence plate reader (Millipore) can be measured over time. […] The amount of increase over time can be calculated from the slope of the plotted increase using linear regression. Each yeast strain accumulates fluorescent product at a characteristic rate, as reflected in the differences in the slopes of the various lines. • 4. […]

NIH 3T3 cells = experiment: Cytotoxicity (loss of fluorescence) assay using CMFDG (Example 15); type: cell-based; details: 10 μM for 30 minutes at 37° C.
Description: 1) Reagents 5-Chloromethylfluorescein di-β-D-galactopyranoside (CMFDG) (Example 1) and 7-(β-D-galactopyranosyloxy)-4-chloromethylcoumarin (Cl-MUG) (Example 3) are separately dissolved at 10 mM anhydrous DMSO and stored frozen at −20° C. until needed. Saponin is dissolved in PBS at a concentration of 0.04%.
NIH/3T3 cells (lacZ negative) and CRE BAG 2 cells (3T3 cells transformed with a retrovirus containing latZ gene) are employed for cellular assays. Both cell lines can be obtained from American Type Culture Collection Co., Rockville, Md. The cells are grown in a humidified atmosphere of 5% CO2 in Dulbecco's modified Eagle's medium supplemented with 10% calf serum, 50 μg/mL gentamicin, 300 μg/mL L-glutamine and 10 mM HEPES pH7.4.
The experiment is most conveniently performed in a CytoFluor™ 2300 fluorescence plate reader (Millipore) but can be performed qualitatively on a microscope slide or quantitatively in a flow cytometery, or in any system that permits washing of the cells following addition of the cytotoxic agent. […] Fluorescence of each well is determined using a 485 nm excitation filter, a 530 nm emission filter and sensitivity setting 1. […] Loss of fluorescence from the sample is correlated with the loss of integrity of the membrane and thus the cytotoxicity of the reagent.

[4] = tested on: NIH/3T3 cells and CRE BAG 2 cells; details: 500 μM staining medium for 24 hours
Description: as §1

Q: Which results are given for `O=C1OC2(c3ccc(O[C@@H]4O[C@H](CO)[C@H](O)[C@H](O)[C@H]4O)cc3Oc3cc(O[C@@H]4O[C@H](CO)[C@H](O)[C@H](O)[C@H]4O)ccc32)c2ccc(CCl)cc21` [CMFDG, 5-chloromethylfluorescein di-β-D-galactopyranoside]?
A: staining of cells after 10 minutes incubation ([1]; 0.5 mM CMFDG versus 2 mM FDG, hypoosmotic shock loading): very well stained and much brighter; stained cells apparently as bright as after 10 minutes incubation ([1]; after incubation for 4 hours, 0.5 mM): more than 70%; cytotoxicity [2]: no cytotoxicity; fluorescence plotted over time ([3]; each lacZ-positive yeast strain, CytoFluor 2300 plate reader): linear increase in fluorescence; fluorescence intensity over time versus level of lacZ expression (ONPG assay) ([3]; transformed yeast cells): correlates well; fluorescence of loaded cells (NIH 3T3 cells): brightly fluorescent; cell morphology [4]: morphologically normal; population doubling time versus control [4]: same population doubling time
